Measured values reported in ChEMBL document CHEMBL3046183, “2,4,6-Trihydroxybenzaldehyde as a potent antidiabetic agent alleviates postprandial hyperglycemia in normal and diabetic rats” (Med Chem Res, 2011).
Values belong to the compound of their own block, whether it stands above or below them. Calls of active or inactive are those of the source. The calls are words filed in the database; no cut-off is given here.

Key:
Rattus norvegicus [1] = assay: Antihyperglycemic activity in glucose treated Rattus norvegicus Sprague-Dawley (rat) assessed as reduction of postprandial blood glucose level at 50 mg/kg administered intragastrically immediately after glucose load after 30 min (reference value: 95.7 to 182.3 mg/dl); format: functional; settings: route intragastric
Rattus norvegicus [2] = assay: Antihyperglycemic activity in maltose treated Rattus norvegicus Sprague-Dawley (rat) assessed as reduction of postprandial blood glucose level at 50 mg/kg administered intragastrically immediately after maltose load after 2 hr; format: functional, organism-based; set-up: dose 50 mg/kg
Rattus norvegicus [3] = assay: Antidiabetic activity in Rattus norvegicus Sprague-Dawley (rat) streptozotocin-induced diabetic model assessed as reduction of blood glucose level at 50 mg/kg administered intragastrically after 30 min (reference value: 378.2 to 594.7 mg/dl); format: functional; settings: route intragastric
Rattus norvegicus [4] = assay: Antidiabetic activity in maltose loaded Rattus norvegicus Sprague-Dawley (rat) streptozotocin-induced diabetic model assessed as reduction of blood glucose level at 50 mg/kg administered intragastrically immediately after maltose load after 2 hr; format: functional, organism-based; set-up: dose 50 mg/kg
[5] = Inhibition of alpha-glucosidase (unknown origin) using PNPG as substrate assessed as p-nitrophenol release from substrate after 30 min; set-up: species or system Homo sapiens
Rattus norvegicus [6] = assay: Antihyperglycemic activity in glucose treated Rattus norvegicus Sprague-Dawley (rat) assessed as reduction of postprandial blood glucose level at 20 mg/kg administered intragastrically immediately after glucose load after 30 min (reference value: 95.7 to 182.3 mg/dl); format: functional; settings: route intragastric
[7] = test system: Radical scavenging activity; assay: Antioxidant activity assessed as DPPH radical scavenging activity after 30 min; format: functional
Homo sapiens = organism: Homo sapiens; assay: Noncompetitive inhibition of alpha-glucosidase (unknown origin) using PNPG as substrate by Lineweaver-Burk plot analysis
Rattus norvegicus [8] = assay: Antidiabetic activity in maltose loaded Rattus norvegicus Sprague-Dawley (rat) streptozotocin-induced diabetic model assessed as reduction of blood glucose level at 20 mg/kg administered intragastrically immediately after maltose load after 2 hr; format: functional, organism-based; set-up: dose 20 mg/kg
Rattus norvegicus [9] = assay: Antihyperglycemic activity in maltose treated Rattus norvegicus Sprague-Dawley (rat) assessed as reduction of postprandial blood glucose level at 20 mg/kg administered intragastrically immediately after maltose load after 2 hr; format: functional, organism-based; set-up: dose 20 mg/kg
Rattus norvegicus [10] = assay: Antidiabetic activity in Rattus norvegicus Sprague-Dawley (rat) streptozotocin-induced diabetic model assessed as reduction of blood glucose level at 20 mg/kg administered intragastrically after 30 min (reference value: 378.2 to 594.7 mg/dl); format: functional; settings: route intragastric

SMILES: C[C@H]1O[C@H](O[C@H]2[C@H](O)[C@@H](O)[C@@H](O[C@H]3[C@H](O)[C@@H](O)C(O)O[C@@H]3CO)O[C@@H]2CO)[C@H](O)[C@@H](O)[C@@H]1N[C@H]1C=C(CO)[C@@H](O)[C@H](O)[C@H]1O (some centres undefined) [ACARBOSE]
Activity (Rattus norvegicus [1]): 97.5 mg/dL | Activity (Rattus norvegicus [2]): Active | Activity (Rattus norvegicus [3]): 372.1 mg/dL | Activity (Rattus norvegicus [4]): Active

IC50 [5]: 2380 µM
SMILES: COc1cc(OC)c(C=O)c(OC)c1 [2,4,6-TRIMETHOXYBENZALDEHYDE]

IC50 [7]: 71.4 µM | inhibition (Homo sapiens): Active | IC50 [5]: 4.6 µM
SMILES: O=Cc1c(O)cc(O)cc1O [PHLOROGLUCINALDEHYDE]
Activity (Rattus norvegicus [6]): 96.5 mg/dL | Activity (Rattus norvegicus [8]): inactive | Activity (Rattus norvegicus [9]): inactive | Activity (Rattus norvegicus [10]): 367.9 mg/dL

SMILES: O=C(OC[C@H]1O[C@@H](OC(=O)c2cc(O)c(O)c(O)c2)[C@H](OC(=O)c2cc(O)c(O)c(O)c2)[C@@H](OC(=O)c2cc(O)c(O)c(O)c2)[C@@H]1OC(=O)c1cc(O)c(O)c(O)c1)c1cc(O)c(O)c(O)c1 [PENTAGALLOYL GLUCOSE]
IC50 [5]: 0.39 µM

SMILES: O=C(O)c1cc(O)c(O)c(O)c1 [GALLIC ACID]
IC50 [5]: 112 µM
